# Source: patent publication US6121252A, “Phosphinic acid derivatives” (priority 1998, dated 2000)
# Read-outs that look alike come from different tables or passages of the source.
# Key:
# [1] = system: SHRSP rats; assay: Cortical injury following MCAO in SHRSP rats; format: in vivo, rat; details: for Cortical Injury Volume / Cortical Injury Volume (% injury): ± S.E.M., n = 10
# Method: Rectal temperature is maintained at 37.0±0.50° C. throughout the surgical procedure using a heating lamp.
# [2] = system: Sprague-Dawley rats; assay: Brain injury following MCAO in Sprague-Dawley rats; format: in vivo, rat; details: for mean total brain infarct volume: then 20 mg/kg/hr IV 4 hours
# [3] = system: alcohol-preferring rats; assay: Ethanol consumption in alcohol-preferring rats; format: in vivo, rat; details: for reduction of ethanol consumption: p<0.05
# Method: A within-subject design was used where 2-(phosphonomethyl)pentanedioic acid treatments were tested once per week. Baseline ethanol drinking consisted of the mean of the 3 days prior to testing in which saline injections were given. […] 24 hour water and daily body weights were recorded to assess non-specific drug effects. Results were analyzed using paired t-tests with baseline and test day values serving as the independent variables. Ethanol intake was recorded as amount of solution consumed (mls).
# [4] = system: spinal cord organotypic cultures; assay: ALS model: ChAT activity of spinal cord organotypic cultures with THA; format: cell-based, rat
# Method: Organotypic cultures were prepared from lumbar spinal cord of 8 day old rats, as described by Rothstein et al., J. Neurochem., Vol. 65, No. 2 (1995), and Rothstein et al., Proc. Natl. Acad. Sci. USA, Vol. 90, pp. 6591-6595 (July 1993). In brief, lumbar spinal cords were removed and sliced into […]-thick-dorsal-ventral sections, and five slices were placed on Millipore CM semipermeable 30-mm-diameter membrane inserts. The inserts were placed on 1 ml of culture medium in 35-mm-diameter culture wells. Culture medium consisted of 50% minimal essential medium and phosphate-free HEPES (25 mM), 25% heat-inactivated horse serum, and 25 Hanks' balanced salt solution (GIBCO) supplemented with D-glucose (25.6 mg/ml) and glutamine (2 mM), at a final pH of 7.2. Antibiotic and antifungal agents were not used. Cultures were incubated at 37° C. in 5% CO2 containing humidified environment (Forma Scientific). Culture medium, along with any added pharmacological agents, was changed twice weekly.
# Drugs were incubated for an additional 13 to 20 days with the 100 μM THA. At the end of this period, cultures were collected assayed for ChAT activity as described below.
# To determine choline acetyltransferase (CHAT) activity, the spinal cord tissues in each dish (five slices) were pooled and frozen (-75° C.) until assay. CHAT activity was measured radiometrically by described methods using [^3 H]acetyl-CoA (Amersham; Fonnum, 1975). Protein content of tissue homogenate was determined by a Coomassi Protein Assay kit (Pierce, Rockford, Ill.).
# [5] = system: male Long-Evans rats; assay: Nicotine self-administration in male Long-Evans rats; format: in vivo, rat; details: 200 mg/kg
# Method: Male Long-Evans rats were trained to self-administer nicotine on a fixed ratio schedule of reinforcement, as described by Corrigall et al., Psychopharmacology, Vol. 104, No. 2, pp. 171-176 (1991) and Corrigall et al., Psychopharmacology, Vol. 107, Nos. 2-3, pp. 285-289 (1992). In brief, male Long-Evans rats were food deprived for a short period of time (24-48 hours) and trained to press a lever in an operant responding chamber on an FR-1 schedule of food reinforcement. Once trained, each rat was surgically prepared with a chronic intravenous catheter implanted into the jugular vein. The rats were allowed 1 week to recover from surgery.
# After 1 week, nicotine self-administration studies were initiated on an FR-1 with a 60 second signaled time-out following each infusion. During time-out, responding on the lever had no scheduled consequence. Nicotine self-administration sessions were 60 minutes in duration. Each nicotine infusion contained 30 μg of nicotine/kg rat and were delivered in a volume of 54 μl over an infusion duration of 0.3 seconds. […] Food intake was monitored during the nicotine self-administration sessions to assess non-specific drug effects.
# [6] = system: LNCaP tumors; assay: In vivo LNCaP tumor model, subcutaneous Compound 3; set-up: species or system ncr nude male mice
# Method: Ncr nude male mice, age 5 to 6 weeks, were injected in the right flank with 5×10^6 LNCaP cells in Matrigel™ (0.1 ml total injection volume). […] Controls received 50 mM HEPES s.c. daily. Once tumors were palpable they were measured twice a week.
# Response to treatment was monitored in two ways. First, mean tumor volume for each group was presented as tumor:control ratio (% T/C) and these values were compared at one point in time. Second, tumor volume versus time was monitored.
# [7] = system: dopaminergic neurons; assay: Parkinson's Disease model: MPTP lesioned mice; format: in vivo, CD1 mice; details: 10 mg/kg, p<0.001
# Method: To examine the effect of NAALADase inhibitors on Parkinson's Disease in vivo, MPTP lesioned mice were treated with 2-(phosphonomethyl)pentanedioicacid or a vehicle.
# MPTP lesioning of dopaminergic neurons in mice was used as an animal model of Parkinson's Disease, as described by Steiner, Proc. Natl. Acad. Sci., Vol. 94, pp. 2019-2024 (March 1997). In brief, four week old male CD1 white mice were dosed IP with 30 mg/kg of MPTP for 5 days. […] At 18 days following MPTP treatment, the mice were sacrificed and their brains were removed and sectioned. Immunostaining was performed on saggital and coronal brain sections using anti-tyrosine hydroxylase (TH) antibodies to quantitate survival and recovery of dopaminergic neurons.
# [8] = system: extracellular glutamate; assay: Stroke-induced rise in brain glutamate levels (microdialysis); format: in vivo, Sprague Dawley rats; details: 100 mg/kg IP then 20 mg/kg/hr IV
# [9] = system: mice; assay: In vivo toxicity of NAALADase inhibitors (5-day survival); details: 1 to 500 mg/kg
# Excerpt: The mice were subsequently observed two times per day for 5 consecutive days. The survival rate at each dose level is provided below in TABLE II.
# [10] = system: LNCaP cells
# Method: On the 7th day, the cells are pulsed with 3H-thymidine for 4 hours, harvested and measured for radioactivity. Values represent means +/- SEM of 6 separate cell wells for each treatment. All experiments are performed at least twice.
# LNCaP cells are obtained from Dr. William Nelson at the Johns Hopkins School of Medicine in Baltimore, Md. DU145 cells are obtained from American Type Culture Collection (Rockville, Md.). Cells are grown in RPMI-1640 media supplemented with 5% heat-inactivated fetal calf serum, 2 mM-glutamine, 100 units/ml penicillin, and 100 μg/ml streptomycin (Paragon) in a humidified incubator at 37° C. in a 5% CO2 /95% air atmosphere.
# The cells are suspended at 1×10^3 cells/ml in RPMI-1640 media and seeded into 24-well plates at 500 μl per well. […] 5 ml UltimaGold (Packard) scintillation cocktail is added and radioactivity is quantitated using a Beckman LS6001 scintillation counter.
# [11] = 10 mg/kg then 2 mg/kg/hr for 1 hour
# [12] = 100 mg/kg then 20 mg/kg/hr for one hour
smiles,measurement,setting,value
"O=C(O)CCC(CP(=O)(O)O)C(=O)O (stereo not shown) [Compound 3, 2-(phosphonomethyl)pentanedioic acid]",Cortical Protection,[1]; [11],27 % protection
same,Cortical Injury Volume,[1]; [11],135.00 ± 32.18 mm^3
same,Cortical Injury Volume (% injury),[1]; [11],29.14 ± 7.68 % injury
same,Cortical Protection,[1]; [12],65 % protection
same,Cortical Injury Volume,[1]; [12],65.23 ± 32.18 mm^3
same,Cortical Injury Volume (% injury),[1]; [12],13.98 ± 6.64 % injury
same,mean total brain infarct volume,"[2]; 100 mg/kg IP 20 minute pre-treatment, p=0.003 vs. vehicle (293±26)",122±26 mm^3
same,mean total brain infarct volume,"[2]; 100 mg/kg IP 30 minute post-treatment, p=0.2 vs. vehicle (293±26)",208±40 mm^3
same,mean total brain infarct volume,"[2]; 100 mg/kg IP 60 minute post-treatment, p=0.015 vs. vehicle (293±26)",125±57 mm^3
same,mean total brain infarct volume,"[2]; 100 mg/kg IP 120 minute post-treatment, p=0.005 vs. vehicle (293±26)",133±35 mm^3
same,neuroprotection in rat MCAO model (in words),[2]; up to 2 hours post-occlusion,neuroprotective in rat MCAO model of stroke when administered up to 2 hours post-occlusion
same,reduction of ethanol consumption,"[3]; 50 mg/kg IP, 1 hour access",approximately 25%
same,ethanol intake,"[3]; 50 mg/kg, saline baseline 8.1±0.6",6.2±0.9 mls
same,reduction of ethanol consumption,"[3]; 100 mg/kg IP, 1 hour access",approximately 25%
same,ethanol intake,"[3]; 100 mg/kg, saline baseline 7.8±0.8",5.8±0.7 mls
same,effect on ethanol consumption (in words),"[3]; 200 mg/kg IP, 1 hour access",no effect
same,ethanol intake,"[3]; 200 mg/kg, saline baseline 8.9±0.7",8±0.5 mls
same,body weights and 24 hour water intakes (in words),"[3]; 50, 100, 200 mg/kg",not altered at any of the 3 doses
same,protection against THA-induced toxicity (in words),"[4]; 1 nM to 10 μM, THA 100 μM, 14 days",dose-dependent protection against THA-induced toxicity with maximal effects at 1 μM
same,protection from THA toxicity (in words),[4]; 100 nM - 10 μM with THA,significantly protected the cultures from THA toxicity
same,ChAT Activity,[4]; 2-(phosphonomethyl)pentanedioic acid alone,108 ± 18.4 % of Control
same,ChAT Activity,[4]; with THA,121 ± 18.8 % of Control
same,cumulative food intake (in words),[5]; 1 hour,decreased
same,nicotine self-administration,"[5]; 1 hour access period, reduced from 23",5 infusions
same,effect on tumor growth (in words),[6]; 1 mg/kg s.c.,no effect on tumor growth
same,effect on tumor growth (in words),[6]; 3 mg/kg s.c.,no effect on tumor growth
same,"tumor growth, % of controls","[6]; 10 mg/kg s.c., day 86, p=0.006",24 % of controls
same,effect on tumor growth (in words),[6]; 30 mg/kg s.c.,no effect on tumor growth
same,recovery of TH-stained dopaminergic neurons (in words),[7],significant recovery of TH-stained dopaminergic neurons
same,"stroke-induced glutamate changes, parietal cortex (in words)",[8]; p<0.01,completely prevented concurrent glutamate changes in the parietal cortex
same,"stroke-induced extracellular glutamate increase, striatum (in words)",[8]; p<0.05,significantly attenuated stroke-induced extracellular glutamate increases in the striatum
same,"glutamate, frontal cortex (in words)",[8]; vs vehicle,no subsequent difference between the vehicle and 2-(phosphonomethyl)pentanedioic acid treated groups
same,toxicological effect (in words),[9],non-toxic to mice
same,3H-Thymidine Incorporation,[10]; 10 pM,3078 ± 1006 dpm/well
same,3H-Thymidine Incorporation,[10]; 100 pM,2062 ± 595 dpm/well
same,3H-Thymidine Incorporation,[10]; 1 nM,1001 ± 52 dpm/well
same,3H-Thymidine Incorporation,[10]; 10 nM,664 ± 366 dpm/well
